Results as given in patent US10292390B2, “Inhibition and dispersion of bacterial biofilms with 2-aminobenzimidazole derivatives” (WISCONSIN ALUMNI RESEARCH FOUNDATION, priority 2011, dated 2019).
pIC50: −log10 of the molar value. Like-named read-outs stand apart in the source and are kept apart here.

Experiments:
[1] = system: P. aeruginosa PAO1 biofilm; test: crystal violet static biofilm inhibition assay; format: cell-based, Pseudomonas aeruginosa; conditions: for pIC50: Pseudomonas aeruginosa, PAO1; for anti-biofilm (biofilm inhibitory) activity in words: initial screen at 500 μM, 12 and 24 h; for inhibition of biofilm growth: at 100 micro M, 24 h
Procedure: Stilbenes 1, 2, and 4a-b were tested for inhibition of biofilm formation in a wild-type P. aeruginosa strain (PAO1) at 500 μM using standard static biofilm growth assays.
Biofilms were grown in a modified M9 minimal media in 96-well microtiter plates, and crystal violet staining of the surface-associated biomass was used to quantify biofilm growth at 12 and 24 h (see The Examples).
A modified version of the widely used crystal violet (CV) microtiter plate biofilm assay, first described by Christensen et al. and later popularized by O'Toole et al., [57] was used in this study and is described in detail below.
Compounds to be evaluated for biofilm modulatory activity were added to the assay microtiter plates by means of a “solvent evaporation” delivery. This delivery method involves preparation of compound stock solutions, addition of stocks to microtiter plates at appropriate volumes to obtain target molar quantities per well, evaporation of the solvent, and re-solubilization of the compound in the final assay medium upon inoculum addition. This delivery method was adopted to avoid the biofilm inhibitory effects observed with an “organic solvent-to-solution” delivery method (e.g., DMSO-to-media; data not shown), which is more commonly done in small molecule screens. EtOH was chosen as the solvent for solvent evaporation delivery in this study based on the chemical resistance limitations of polystyrene microtiter plates. Prior to each experiment, EtOH stock solutions of compounds being evaluated were prepared, diluted, and added to microtiter plates at varied volumes to obtain a target final concentration per well upon inoculum addition. Plates were incubated at 37° C. to evaporate EtOH and sterilized in a Baker SterilGARD III Advance Biological Safety Cabinet by UV-C germicidal irradiation for 30 min (lids removed). EtOH only was added to wells designated as “no compound” positive controls (Pos. Con.) and “no bacteria” negative controls (note, controls lacking bacteria yielded no significant staining in the CV assay (data not shown)). The outer wells were never used for test samples as evaporation and significant deviations in growth were observed; thus, outer wells were filled with sterile 18 MΩ H2O to minimize these effects.
Bacterial samples for biofilm assessment were prepared by first streaking a freezer stock of P. aeruginosa PAO1 on an LB/agar plate and incubating at 37° C. for ˜16 h. Single colonies were selected and used to inoculate LB medium (10 mL) in a 25 mL Erlenmeyer flask. The culture was grown on an incubator-shaker (200 rpm) at 37° C. for ˜16 h to an OD600 of ˜1.0. Overnight cultures were gently decanted into falcon tubes to minimize transfer of biofilm produced during overnight growth. An inoculating culture was prepared by centrifuging an aliquot of overnight culture at 3,000 rpm for 10 min, removal of the supernatant, and then re-suspending the pellet in 95:5 M9+:LB at 10-fold the initial volume (effecting a 1-in-10 dilution; OD600 ˜0.1-0.2). Using a multi-channel pipette, this culture was added to test microtiter plates in 200 μL aliquots. The well contents were mixed using a 10 μL multi-channel pipette in a swirling motion; insoluble compound samples were noted and later excluded from the data set as needed.
Plates were covered with the provided lid and incubated statically at 37° C. for 12-24 h. Maximal biofilm formation is obtained at 24 h, after which the amount of biofilm declines unless fresh nutrients are provided. After incubation, the OD600 was measured, and the bacterial suspension was removed by inverting and shaking the plate over a waste pan and then taping on a paper towel (process termed “dumping”). Non-biofilm associated biomaterial was removed by adding 225 μL PBS and dumping (process termed “washing”) and then repeating this washing process. Biofilm was fixed to the microtiter plates by uncovering the plate and thermally dehydrating at 37° C. […]

Gram-positive bacteria = conditions: WO 2010/144686 (7); ref. 34 (18); cited from earlier work
[2] = 12 h incubation, CV assay, read-out: 12 h biofilm IC50
[3] = 24 h incubation, CV assay, read-out: 24 h biofilm IC50
[4] = Table 1, crystal violet, read-out: IC50, P. aeruginosa PAO1 biofilm inhibition

Structure (SMILES)	pIC50 [1, 2]	pIC50 [1, 3]	pIC50 [1, 4]	biofilm inhibition in Gram-positive bacteria as reported (Gram-positive bacteria)	anti-biofilm (biofilm inhibitory) activity in words [1]	inhibition of biofilm growth [1]
Nc1nc2cc([N+](=O)[O-])ccc2[nH]1 [Compound 18, 5-Nitro-2-aminobenzimidazole]	4.30	4.20	4.20	reported to be a biofilm inhibitor in Gram-positive bacteria		
Nc1nc2cc(Br)ccc2[nH]1 [Compound 11, 5-Bromo-2-aminobenzimidazole]	4.66	4.65	4.66			
C(=C\c1ccc2[nH]ccc2c1)/c1ccccc1 [Compound 4a, 5-Styryl-1H-indole]					Neither indole, derivative (4a-b), however, showed appreciable anti-biofilm activity	
Nc1nc2cc(Cl)ccc2[nH]1 [Compound 12, 5-Chloro-2-aminobenzimidazole]	4.59	4.56	4.55			
N=C(N)N [Compound 9, Guanidine, reference compound]					neither 2-AI (8) nor guanidine (9) was found to display significant inhibitory activity	
C(=C\c1ccc2cc[nH]c2c1)/c1ccccc1 [Compound 4b, 6-Styryl-1H-indole]					Neither indole, derivative (4a-b), however, showed appreciable anti-biofilm activity	
S=c1[nH]c2ccccc2[nH]1 [Compound 2-TBI, 2-thiobenzamidazole, reference compound]					significantly less active than 2-ABI derivatives	
Nc1nc2cc(C(=O)O)ccc2[nH]1 [Compound 16, 5-Carboxylic acid-2-aminobenzimidazole]					total loss	
Nc1nc2cc(I)ccc2[nH]1 [Compound 10, 5-Iodo-2-aminobenzimidazole]	4.58	4.69	4.70			
COc1ccc2[nH]c(=S)[nH]c2c1 [Compound 5-OMe-2-TBI, reference compound]					significantly less active than 2-ABI derivatives	
Nc1ncc[nH]1 [Compound 8, 2-aminoimidazole, reference compound]					neither 2-AI (8) nor guanidine (9) was found to display significant inhibitory activity	
C(=C\c1ccc2nc[nH]c2c1)/c1ccccc1 [Compound 5, 6-Styryl-1H-benzimidazole]					complete loss of inhibitory activity	
C(=Cc1ccccc1)c1ccccc1 [Compound 6, Stilbene, reference compound]					complete loss of inhibitory activity	
Nc1nc(-c2ccc(/C=C/c3ccccc3)cc2)c[nH]1 [Compound 2, 4-(E)-Stilbene-2-aminoimidazole]	5.42	4.74				48%
Nc1nc2ccc(/C=C/c3ccccc3)cc2[nH]1 [Compound 1, 6-Styryl-2-aminobenzimidazole]	4.89	5.05				56%

Further lines, with some results ahead:

pIC50 [1, 2]	pIC50 [1, 3]	pIC50 [1, 4]	Structure (SMILES)	biofilm inhibition in Gram-positive bacteria as reported (Gram-positive bacteria)	anti-biofilm (biofilm inhibitory) activity in words [1]	inhibition of biofilm growth [1]
4.26	4.32	4.32	Nc1nc2cc3ccccc3cc2[nH]1 [Compound 24, 2-Amino-1H-naphtho[2,3-d]imidazole]			
3.73	3.86	3.85	COC(=O)c1ccc2[nH]c(N)nc2c1 [Compound 15, 5-Carboxylic acid methyl ester-2-aminobenzimidazole]			
4.56	4.60	4.60	Cc1ccc2[nH]c(N)nc2c1 [Compound 20, 5-Methyl-2-aminobenzimidazole]			
3.70	3.76	3.74	N#Cc1ccc2[nH]c(N)nc2c1 [Compound 17, 5-Cyano-2-aminobenzimidazole]			
4.13	4.10	4.10	COc1ccc2[nH]c(N)nc2c1 [Compound 22, 5-Methoxy-2-aminobenzimidazole]			
4.42	4.41	4.41	Cc1cccc2[nH]c(N)nc12 [Compound 19, 4-Methyl-2-aminobenzimidazole]			
4.52	4.45	4.46	Nc1nc2cc(F)ccc2[nH]1 [Compound 13, 5-Fluoro-2-aminobenzimidazole]			
